The record followed here is PubChem BioAssay (NCI).

“And” between values parts separate entries of the source, which are not always exact repeats. Equal values may be shown once.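 Dose response: 5 concentrations. Exposure: 48 h. Format: 96-well plates. Endpoint: linear interpolation; highest concentration if not reached. At the GI50, growth is halved. TGI denotes the concentration required for complete inhibition of growth.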

Common to all, as to assay: inhibition of tumour cell growth, NCI panel, 48 h
Assay [1] deals with SNB-19 CNS.
The test system of assay [2] is SK-MEL-5 melanoma.
The test system of assay [3] is RXF 393 renal.
In assay [4] the test system is BT-549 breast.
For assay [5], the system named is COLO 205 colon.
For assay [6], the system named is T-47D breast.
Assay [7] deals with SNB-75 CNS.
The subject of assay [8] is LOX IMVI melanoma.

Consider `O=[N+]([O-])c1ccccc1N=Nc1c(O)[nH]c2cccc(C(F)(F)F)c12`, for which the TGI in assay [1], in assay [2], in assay [3], in assay [4], in assay [5] and in assay [6] was > 100 µM each time. For the same compound, the TGI in assay [7] and in assay [8] was > 100 µM throughout.

Regarding `Cc1ccc2cnc(N)c(C#Cc3cc(C(=O)Nc4ccc(CN5CCN(C)CC5)c(C(F)(F)F)c4)cnc3C)c2c1`, the GI50 was 0.891 µM in assay [1]; 1.08 µM in assay [2]; 0.676 µM in assay [3]; 1.94 µM in assay [4]; 0.296 µM in assay [5]; 9.23 µM in assay [6]. Also, the GI50 in assay [7] is 0.756 µM; in assay [8] it was 0.183 µM. Further, the TGI came to 1.89 µM in assay [1]; 2.49 µM in assay [2]; 1.35 µM in assay [3]; 6.23 µM in assay [4]; 1.16 µM in assay [5]; 36.7 µM in assay [6]. The TGI came to 1.61 µM in assay [7] and 0.808 µM in assay [8].

As to `COc1ccc2c(c1)C(=O)/C(=C/c1cccc(OCC(=O)c3ccccc3)c1)CC2`, the GI50 in assay [1] is 39.6 µM; in assay [2], 4.14 µM; in assay [3], 0.0502 µM; in assay [4] it was 27.1 µM; in assay [5], 88.5 µM; in assay [6], 7.05 µM. Besides, the GI50 was 42.4 µM in assay [7] and 9.61 µM in assay [8]. The TGI in assay [1] is > 100 µM; in assay [2], 16.5 µM; in assay [3], 8.05 µM; in assay [4], > 100 µM; in assay [5], > 100 µM; in assay [6], > 100 µM. In addition, the TGI in assay [7] and in assay [8] was > 100 µM each time.

In the case of `N=C1C(O)C2(I)c3ccccc3N3C(=N)C(O)C4c5ccccc5N1C4C32` (stereo not given), the TGI in assay [1], in assay [2], in assay [3], in assay [4], in assay [5] and in assay [6] was > 100 µM in each case. Also, the TGI in assay [7] and in assay [8] was > 100 µM throughout.

Regarding `CCOc1ccccc1CCN=C1NC(=O)/C(=C/c2ccc3ncccc3c2)S1`, the GI50 in assay [1] was 1.46 µM; in assay [2], 2.05 µM; in assay [3], 1.31 µM; in assay [4], 1.74 µM; in assay [5], 0.735 µM; in assay [6], 1.46 µM. Besides, the GI50 is 0.536 µM in assay [7] and 1.16 µM in assay [8]. Further, the TGI in assay [1] is > 25 µM; in assay [2], 15.2 µM; in assay [3] it was 10.5 µM; in assay [4] it was > 12.7 µM; in assay [5], 3.07 µM; in assay [6], > 25 µM. Also, the TGI in assay [7] worked out at 7.79 µM; in assay [8], 7.9 µM.

`Cn1ncc(-c2ccc3c(=O)[nH]nc(CN)c3c2)c1-c1c(F)c(Cl)cc(OC2CC2)c1C#N`: the GI50 in assay [1] is 15.3 µM and 14.6 µM; in assay [2], 12 µM and 14.3 µM; in assay [3], 6.22 µM and 2.24 µM; in assay [4], 14.9 µM and 14.3 µM; in assay [5], 11.8 µM and 10.9 µM; in assay [6], 12.3 µM and 6.06 µM. Also, the GI50 in assay [7] is 11.1 µM and 5.4 µM; in assay [8] it was 12.5 µM and 12.9 µM. In addition, the TGI in assay [1] is 31.7 µM and 29.5 µM; in assay [2], 24.4 µM and 27.5 µM; in assay [3], 21.4 µM and 12.9 µM; in assay [4], 30.2 µM and 28.6 µM; in assay [5], 26.9 µM and 25.1 µM; in assay [6], 36.5 µM and 28.4 µM. For the same compound, the TGI in assay [7] was 23.7 µM and 20.7 µM; in assay [8] it was 25.6 µM and 26.2 µM.

With `O=S(=O)(Nc1ccc(Br)cc1)c1ccc(-c2cnc(C3CC3)o2)cc1`, the GI50 was 3.98 µM in assay [1]; 2.49 µM in assay [2]; 1.61 µM in assay [3]; 3.37 µM in assay [4]; 2.53 µM in assay [5]; 2.84 µM in assay [6]. Further, the GI50 in assay [7] was 0.518 µM; in assay [8], 2.41 µM. Besides, the TGI in assay [1] was 18.3 µM; in assay [2], 11.6 µM; in assay [3] it was 7.6 µM; in assay [4], 19.4 µM; in assay [5], 12.1 µM; in assay [6] it was 16.9 µM. Further, the TGI was determined as 3.35 µM in assay [7] and 18 µM in assay [8].

In the case of `CC(=O)Nc1ccc(-c2cc(C(=O)O)c3cc4ccccc4cc3n2)cc1`, the TGI in assay [1], in assay [2], in assay [3], in assay [4], in assay [5] and in assay [6] was > 100 µM each time. The TGI in assay [7] and in assay [8] was > 100 µM each time.

Consider `c1ccc(C2ONC3=NCCN32)cc1` (stereo not given), for which the GI50 in assay [1] was > 100 µM; in assay [2] it was 0.995 µM; in assay [3], 82.9 µM; in assay [4] it was 79.6 µM; in assay [5], 41.6 µM; in assay [6] it was 44 µM. The GI50 is 53.4 µM in assay [7] and 11.3 µM in assay [8]. Also, the TGI was > 100 µM in assay [1]; 49.6 µM in assay [2]; > 100 µM in assay [3]; > 100 µM in assay [4]; > 100 µM in assay [5]; > 100 µM in assay [6]. Besides, the TGI in assay [7] and in assay [8] was > 100 µM in each case.

As to `CCc1c2c(nc3ccc(OCc4ccc(B(O)O)cc4)cc13)-c1cc3c(c(=O)n1C2)COC(=O)[C@]3(O)CC`, the GI50 in assay [1] is < 0.01 µM; in assay [2] it was 0.0244 µM; in assay [3] it was 0.0232 µM; in assay [4] it was 0.0432 µM; in assay [5] it was 0.0855 µM; in assay [6], < 0.01 µM. Besides, the GI50 in assay [7] is < 0.0167 µM; in assay [8] it was < 0.01 µM. Moreover, the TGI in assay [1] is > 39.6 µM; in assay [2], 0.173 µM; in assay [3], 0.142 µM; in assay [4], > 26.5 µM; in assay [5] it was 8.46 µM; in assay [6], > 21.1 µM. The TGI in assay [7] was determined as 0.321 µM; in assay [8], 0.15 µM.

For the compound `c1ccc(-c2nc(-c3ccccn3)nc(-c3ccccn3)n2)nc1`, the GI50 in assay [1] is > 100 µM; in assay [2], 17.2 µM; in assay [3], > 100 µM; in assay [4], 44.6 µM; in assay [5] it was 45.7 µM; in assay [6], 7.85 µM. Besides, the values for the GI50 in assay [7] and in assay [8] were > 100 µM and 33.5 µM, respectively. The TGI in assay [1] is > 100 µM; in assay [2], 47.1 µM; in assay [3], > 100 µM; in assay [4] it was > 100 µM; in assay [5], > 100 µM; in assay [6], > 100 µM. Also, the TGI in assay [7] and in assay [8] was > 100 µM each time.

Regarding `COc1cc(C)ccc1C(=O)c1ccc(C)cc1OC`, the GI50 in assay [1] was 7.31 µM; in assay [2] it was 2.99 µM; in assay [3], 1.66 µM; in assay [4] it was 4.23 µM; in assay [5], 2.55 µM; in assay [6], 4.67 µM. Further, the GI50 in assay [7] was 3.25 µM; in assay [8] it was 7.88 µM. Moreover, the TGI was > 100 µM in assay [1]; 24.6 µM in assay [2]; 4.53 µM in assay [3]; > 100 µM in assay [4]; 9.34 µM in assay [5]; > 100 µM in assay [6]. Also, the TGI in assay [7] and in assay [8] was > 100 µM throughout.

`Oc1cc(Cc2ccccc2)c(Cc2ccccc2)cc1O`: the TGI in assay [1], in assay [2], in assay [3], in assay [4], in assay [5] and in assay [6] was > 10 µM throughout. Also, the TGI in assay [7] and in assay [8] was > 10 µM in each case.

Regarding `O=C(NCC1CC1)c1ccc(-c2cccc(C(=O)NC3CC3)c2)cc1`, the GI50 in assay [1], in assay [2], in assay [3], in assay [4], in assay [5] and in assay [6] was > 25 µM each time. Also, the GI50 in assay [7] and in assay [8] was > 25 µM each time. The TGI in assay [1], in assay [2], in assay [3], in assay [4], in assay [5] and in assay [6] was > 25 µM throughout. The TGI in assay [7] and in assay [8] was > 25 µM each time.

Take `CO/N=C(\COc1ccc2c(c1)[nH]c1ccccc12)c1ccc(OC)cc1`: the GI50 in assay [1] was 24.4 µM; in assay [2] it was 15.7 µM; in assay [3], 15.8 µM; in assay [4] it was > 100 µM; in assay [5], 92.3 µM; in assay [6], > 100 µM. The GI50 is 6.66 µM in assay [7] and 19.6 µM in assay [8]. In addition, the TGI in assay [1], in assay [2], in assay [3], in assay [4], in assay [5] and in assay [6] was > 100 µM in each case. In addition, the TGI in assay [7] and in assay [8] was > 100 µM each time.

`O=C(O)c1nc(NCc2nc3cc(Cl)ccc3o2)n[nH]1`: the GI50 in assay [1], in assay [2], in assay [3], in assay [4], in assay [5] and in assay [6] was > 100 µM each time. The GI50 in assay [7] and in assay [8] was > 100 µM in each case. Besides, the TGI in assay [1], in assay [2], in assay [3], in assay [4], in assay [5] and in assay [6] was > 100 µM in each case. Besides, the TGI in assay [7] and in assay [8] was > 100 µM in each case.

In the case of `O=C(Nc1cccc(Cl)c1)Nn1cnnc1`, the GI50 in assay [1], in assay [2], in assay [3], in assay [4], in assay [5] and in assay [6] was > 50 µM throughout. The GI50 in assay [7] and in assay [8] was > 50 µM each time. The TGI in assay [1], in assay [2], in assay [3], in assay [4], in assay [5] and in assay [6] was > 100 µM each time. Moreover, the TGI is > 100 µM in assay [7] and > 50 µM in assay [8].

For the compound `CCN1C(=O)N(CC)C2C1NN=c1s/c(=C\c3ccc(Cl)cc3Cl)c(=O)n12` (stereo not given), the GI50 in assay [1] was 0.0503 µM; in assay [2], 0.0247 µM; in assay [3], 0.0327 µM; in assay [4] it was 0.0302 µM; in assay [5], 0.0263 µM; in assay [6], 15.7 µM. The GI50 was 0.0258 µM in assay [7] and 0.0329 µM in assay [8]. Further, the TGI is > 100 µM in assay [1]; 0.0763 µM in assay [2]; 14.7 µM in assay [3]; 2.48 µM in assay [4]; 0.0748 µM in assay [5]; 99.3 µM in assay [6]. For the same compound, the figures for the TGI in assay [7] and in assay [8] were 0.971 µM and > 35.1 µM, respectively.

Take `C=C1CCC2C3(C)COC(C)(C)OC3CCC2(C)C1C/C=C1/C(=O)OCC1OC(C)=O` (stereo not given): the GI50 was 15.6 µM in assay [1]; 4.8 µM in assay [2]; 1.6 µM in assay [3]; 2.33 µM in assay [4]; 1.72 µM in assay [5]; 2.96 µM in assay [6]. The GI50 is 5.23 µM in assay [7] and 0.704 µM in assay [8]. For the same compound, the TGI in assay [1] came to 29 µM; in assay [2], 16.4 µM; in assay [3] it was 3.32 µM; in assay [4], 6.79 µM; in assay [5], 3.43 µM; in assay [6], 11.5 µM. Moreover, the TGI in assay [7] is 16.5 µM; in assay [8] it was 2.46 µM.

Turning to `C=CCc1c(Cl)nc(Cl)nc1Cl`, the TGI in assay [1] was 2.21 µM; in assay [2], 0.301 µM; in assay [3], 0.601 µM; in assay [4], 0.641 µM; in assay [5] it was 0.696 µM; in assay [6] it was 0.979 µM. Besides, the TGI in assay [7] amounted to 5.87 µM; in assay [8], 0.344 µM.
